What was measured:
[1] = target: T1, M. thermoresistibile OtsA L319I, V363F, E367L (Mycolicibacterium thermoresistibile, UniProt G7CGT2, E367L/L319I/V363F); assay: OtsA kinetic parameters, continuous colorimetric coupled assay (L319I, V363F, E367L); assay type: biochemical, Mycobacterium thermoresistibile; details: triple mutant
T1 sequence (G7CGT2 1-486 L319I/V363F/E367L): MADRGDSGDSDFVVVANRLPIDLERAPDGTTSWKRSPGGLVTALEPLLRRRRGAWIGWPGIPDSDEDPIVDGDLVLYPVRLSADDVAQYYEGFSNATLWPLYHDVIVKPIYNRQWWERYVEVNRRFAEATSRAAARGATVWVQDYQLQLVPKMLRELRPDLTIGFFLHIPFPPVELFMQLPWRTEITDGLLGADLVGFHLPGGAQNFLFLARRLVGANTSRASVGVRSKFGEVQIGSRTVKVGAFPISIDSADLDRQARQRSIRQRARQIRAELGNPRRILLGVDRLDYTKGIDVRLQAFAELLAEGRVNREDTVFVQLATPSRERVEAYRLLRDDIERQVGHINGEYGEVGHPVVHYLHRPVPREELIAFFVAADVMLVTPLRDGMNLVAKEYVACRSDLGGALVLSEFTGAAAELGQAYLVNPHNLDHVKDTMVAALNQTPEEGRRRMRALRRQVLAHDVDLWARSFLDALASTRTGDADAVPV

[2] = target: T2, M. thermoresistibile OtsA L319I (Mycolicibacterium thermoresistibile, UniProt G7CGT2, L319I); assay: OtsA kinetic parameters, continuous colorimetric coupled assay (L319I); assay type: biochemical, Mycobacterium thermoresistibile
T2 sequence (G7CGT2 1-486 L319I): T1 sequence (G7CGT2 1-486 L319I/V363F/E367L)

[3] = target: T3, M. thermoresistibile OtsA V363F (Mycolicibacterium thermoresistibile, UniProt G7CGT2, V363F); assay: OtsA kinetic parameters, continuous colorimetric coupled assay (V363F); assay type: biochemical, Mycobacterium thermoresistibile
T3 sequence (G7CGT2 1-486 V363F): T1 sequence (G7CGT2 1-486 L319I/V363F/E367L)

[4] = target: T4, MtrOtsA (Mycolicibacterium thermoresistibile, UniProt G7CGT2); assay: biochemical
T4 sequence (G7CGT2 1-486): T1 sequence (G7CGT2 1-486 L319I/V363F/E367L)

[5] = target: M. thermoresistibile OtsA wild type (Mycolicibacterium thermoresistibile, UniProt G7CGT2); assay: OtsA kinetic parameters, continuous colorimetric coupled assay (wild type); assay type: biochemical, Mycobacterium thermoresistibile
[6] = target: T4, MtrOtsA; details: ITC, 25°C, 60 μM OtsA, 1 mM ligand

Structure (SMILES): Nc1ncnc2c1ncn2[C@@H]1O[C@H](COP(=O)(O)OP(=O)(O)O[C@H]2O[C@H](CO)[C@@H](O)[C@H](O)[C@H]2O)[C@@H](O)[C@H]1O [ADP-glucose]
- fold increase in Km^app compared to the wild type [1]: ~5 fold
- fold increase in Km^app compared to the wild type [2]: ~3 fold
- fold increase in Km^app over the wild type [3]: ~2.5 fold
- Kd [4]: 27.2 ± 2.66 µM

Structure (SMILES): Nc1nc2c(ncn2[C@@H]2O[C@H](COP(=O)(O)OP(=O)(O)O[C@H]3O[C@H](CO)[C@@H](O)[C@H](O)[C@H]3O)[C@@H](O)[C@H]2O)c(=O)[nH]1 [GDP-glucose]
- turnover, fold lower than ADP-glucose [5]: 5 fold
- heat of binding [6]: no observable heat of binding
- fold increase in Km^app over the wild type [3]: ~2.5 fold

— PMC6879718, “Mycobacterial OtsA Structures Unveil Substrate Preference Mechanism and Allosteric Regulation by 2-Oxoglutarate and 2-Phosphoglycerate” (mBio, 2019)
